Measured values reported in US10208047B2, “Tertiary alcohol imidazopyrazine BTK inhibitors” (Merck Sharp & Dohme Corp., priority 2014, dated 2019).

Target: BTK enzyme (recombinant full-length BTK, hBTK) (Homo sapiens (Human), UniProt Q06187)
Experiment: Btk enzyme activity assay, LANCE TR-FRET
Format: biochemical
Settings: 50 pM hBTK, 2 μM biotin-A5-peptide, 25 μM ATP, 60 minute compound & enzyme incubation, compound range 1 μM to 0.017 nM, read-out: BTK binding IC50
Method: Btk Enzyme Activity Assay Methods
BTK enzymatic activity was determined with the LANCE (Lanthanide Chelate Excite) TR-FRET (Time-resolved fluorescence resonance energy transfer) assay. In this assay, the potency (IC50) of each compound was determined from an eleven point (1:3 serial dilution; final compound concentration range in assay from 1 μM to 0.017 nM) titration curve using the following outlined procedure. To each well of a black non-binding surface Corning 384-well microplate (Corning Catalog #3820), 5 nL of compound (2000 fold dilution in final assay volume of 10 μL) was dispensed, followed by the addition of 7.5 μL of 1× kinase buffer (50 mM Hepes 7.5, 10 mM MgCl2, 0.01% Brij-35, 1 mM EGTA, 0.05% BSA & 1 mM DTT) containing 5.09 pg/μL (66.67 pM) of BTK enzyme (recombinant protein from baculovirus-transfected Sf9 cells: full-length BTK, 6HIS-tag cleaved). Following a 60 minute compound & enzyme incubation, each reaction was initiated by the addition of 2.5 μL 1× kinase buffer containing 8 μM biotinylated “A5” peptide (Biotin-EQEDEPEGDYFEWLE-NH2) (SEQ.ID.NO.: 1), and 100 μM ATP. The final reaction in each well of 10 μL consists of 50 pM hBTK, 2 μM biotin-A5-peptide, and 25 μM ATP. Phosphorylation reactions were allowed to proceed for 120 minutes. Reactions were immediately quenched by the addition of 20 uL of 1× quench buffer (15 mM EDTA, 25 mM Hepes 7.3, and 0.1% Triton X-100) containing detection reagents (0.626 nM of LANCE-Eu-W1024-anti-phosphoTyrosine antibody, PerkinElmer and 86.8 nM of Streptavidin-conjugated Dylight 650, Dyomics/ThermoFisher Scientific). After 60 minutes incubation with detection reagents, reaction plates were read on a PerkinElmer EnVision plate reader using standard TR-FRET protocol. Briefly, excitation of donor molecules (Eu-chelate:anti-phospho-antibody) with a laser light source at 337 nm produces energy that can be transferred to Dylight-650 acceptor molecules if this donor:acceptor pair is within close proximity. Fluorescence intensity at both 665 nm (acceptor) and 615 nm (donor) are measured and a TR-FRET ratio calculated for each well (acceptor intensity/donor intensity). IC50 values were determined by 4 parameter robust fit of TR-FRET ratio values vs. (Log10) compound concentrations.

Chain of BTK enzyme (recombinant full-length BTK, hBTK) (Q06187 whole entry): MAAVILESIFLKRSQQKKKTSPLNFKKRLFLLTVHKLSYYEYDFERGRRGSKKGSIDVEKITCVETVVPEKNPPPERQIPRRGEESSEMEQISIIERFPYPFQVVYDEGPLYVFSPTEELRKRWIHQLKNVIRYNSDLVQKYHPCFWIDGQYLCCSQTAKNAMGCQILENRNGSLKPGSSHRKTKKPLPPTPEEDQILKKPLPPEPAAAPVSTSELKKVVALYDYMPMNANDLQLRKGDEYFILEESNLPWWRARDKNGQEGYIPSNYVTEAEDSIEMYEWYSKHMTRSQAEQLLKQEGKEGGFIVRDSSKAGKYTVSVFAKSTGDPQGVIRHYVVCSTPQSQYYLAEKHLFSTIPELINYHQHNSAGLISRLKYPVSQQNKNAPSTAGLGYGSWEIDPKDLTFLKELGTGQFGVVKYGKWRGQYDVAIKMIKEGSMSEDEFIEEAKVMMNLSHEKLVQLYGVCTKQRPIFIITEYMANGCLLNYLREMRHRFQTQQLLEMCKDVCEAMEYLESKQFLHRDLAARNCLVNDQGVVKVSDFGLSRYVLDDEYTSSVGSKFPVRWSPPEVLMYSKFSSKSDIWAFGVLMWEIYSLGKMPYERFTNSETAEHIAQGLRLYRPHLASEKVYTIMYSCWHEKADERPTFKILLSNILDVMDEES

SMILES	IC50 [nM]
CC1(C(=O)O)CCC(C)(c2nc(-c3ccc([C@@](C)(O)c4cccc(C(F)(F)F)c4)cc3)c3c(N)nccn23)CC1 (stereo partly drawn) [Example 1, (R)-4-(8-amino-1-(4-(1-hydroxy-1-(3-(trifluoromethyl)phenyl)ethyl)phenyl)imidazo[1,5-a]pyrazin-3-yl)-1,4-dimethylcyclohexanecarboxylic acid]	39.4
C[C@](O)(c1ccc(-c2nc(C34CCC(C(=O)O)(CC3)CC4)n3ccnc(N)c23)cc1)c1cccc(C(F)(F)F)c1 [Example 2, 4-[8-amino-1-(4-{(1S)-1-hydroxy-1-[3-(trifluoromethyl)phenyl]ethyl}phenyl)imidazo[1,5-a]pyrazin-3-yl]bicyclo[2.2.2]octane-1-carboxylic acid]	5.8
C[C@@](O)(c1ccc(-c2nc(C34CCC(C(=O)O)(CC3)CC4)n3ccnc(N)c23)cc1)c1cccc(C(F)(F)F)c1 [Example 3, 4-[8-amino-1-(4-{(1R)-1-hydroxy-1-[3-(trifluoromethyl)phenyl]ethyl}phenyl)imidazo[1,5-a]pyrazin-3-yl]bicyclo[2.2.2]octane-1-carboxylic acid]	775
CC(C)[C@]1(C(=O)O)CC[C@H](c2nc(-c3ccc([C@](C)(O)c4cccc(C(F)(F)F)c4)cc3)c3c(N)nccn23)C1 [Example 4, (1S,3S)-3-[8-amino-1-(4-{(1S)-1-hydroxy-1-[3-(trifluoromethyl)phenyl]ethyl}phenyl)imidazo[1,5-a]pyrazin-3-yl]-1-(1-methylethyl)cyclopentanecarboxylic acid]	1000
CC(C)[C@]1(C(=O)O)CC[C@H](c2nc(-c3ccc([C@@](C)(O)c4cccc(C(F)(F)F)c4)cc3)c3c(N)nccn23)C1 [Example 5, (1S,3S)-3-[8-amino-1-(4-{(1R)-1-hydroxy-1-[3-(trifluoromethyl)phenyl]ethyl}phenyl)imidazo[1,5-a]pyrazin-3-yl]-1-(1-methylethyl)cyclopentanecarboxylic acid]	19
C[C@@](O)(c1ccc(-c2nc(C34CCC(C(=O)O)(CC3=O)C(=O)C4)n3ccnc(N)c23)cc1)c1cccc(C(F)(F)F)c1 (stereo partly drawn) [Example 6, 4-[8-amino-1-(4-{(1R)-1-hydroxy-1-[3-(trifluoromethyl)phenyl]ethyl}phenyl)imidazo[1,5-a]pyrazin-3-yl]-2,5-dioxobicyclo[2.2.2]octane-1-carboxylic acid]	52
C[C@@](O)(c1ccc(-c2nc(C3(C(=O)O)CC3)n3ccnc(N)c23)cc1)c1cccc(C(F)(F)F)c1 [Example 7, 1-[8-amino-1-(4-{(1R)-1-hydroxy-1-[3-(trifluoromethyl)phenyl]ethyl}phenyl)imidazo[1,5-a]pyrazin-3-yl]cyclopropanecarboxylic acid]	614
C[C@@](O)(c1ccc(-c2nc(C34CCC(C(=O)O)(CC3)C4)n3ccnc(N)c23)cc1)c1cccc(C(F)(F)F)c1 [Example 8, 4-[8-amino-1-(4-{(1R)-1-hydroxy-1-[3-(trifluoromethyl)phenyl]ethyl}phenyl)imidazo[1,5-a]pyrazin-3-yl]bicyclo[2.2.1]heptane-1-carboxylic acid]	1.1
C[C@@](O)(c1ccc(-c2nc(C34CCCC(C(=O)O)(CC3)CC4)n3ccnc(N)c23)cc1)c1cccc(C(F)(F)F)c1 [Example 9, 5-[8-amino-1-(4-{(1R)-1-hydroxy-1-[3-(trifluoromethyl)phenyl]ethyl}phenyl)imidazo[1,5-a]pyrazin-3-yl]bicyclo[3.2.2]nonane-1-carboxylic acid]	7
C[C@@](O)(c1ccc(-c2nc(C3(C(=O)O)CCOCC3)n3ccnc(N)c23)cc1)c1cccc(C(F)(F)F)c1 [Example 10, 4-[8-amino-1-(4-{(1R)-1-hydroxy-1-[3-(trifluoromethyl)phenyl]ethyl}phenyl)imidazo[1,5-a]pyrazin-3-yl]tetrahydro-2H-pyran-4-carboxylic acid]	294

Next, values leading:

IC50 [nM]	SMILES
5	CC1(C)[C@H](c2nc(-c3ccc([C@@](C)(O)c4cccc(C(F)(F)F)c4)cc3)c3c(N)nccn23)CC[C@]1(C)C(=O)O [Example 11, (1S,3R)-3-[8-amino-1-(4-{(1R)-1-hydroxy-1-[3-(trifluoromethyl)phenyl]ethyl}phenyl)imidazo[1,5-a]pyrazin-3-yl]-1,2,2-trimethylcyclopentanecarboxylic acid]
17.3	C[C@@](O)(c1ccc(-c2nc(C34CCC(C(=O)O)(CC3(F)F)C(F)(F)C4)n3ccnc(N)c23)cc1)c1cccc(C(F)(F)F)c1 (stereo partly drawn) [Example 12, 4-[8-amino-1-(4-{(1R)-1-hydroxy-1-[3-(trifluoromethyl)phenyl]ethyl}phenyl)imidazo[1,5-a]pyrazin-3-yl]-2,2,5,5-tetrafluorobicyclo[2.2.2]octane-1-carboxylic acid]
86	CC1(C)[C@@H](c2nc(-c3ccc([C@@](C)(O)c4cccc(C(F)(F)F)c4)cc3)c3c(N)nccn23)CC[C@@]1(C)C(=O)O [Example 13, (1R,3S)-3-[8-amino-1-(4-{(1R)-1-hydroxy-1-[3-(trifluoromethyl)phenyl]ethyl}phenyl)imidazo[1,5-a]pyrazin-3-yl]-1,2,2-trimethylcyclopentanecarboxylic acid]
1000	CC(C)[C@]1(C(=O)O)CCC[C@@H](c2nc(-c3ccc([C@](C)(O)c4cccc(C(F)(F)F)c4)cc3)c3c(N)nccn23)C1 [Example 14, (1S,3R)-3-[8-amino-1-(4-{(1S)-1-hydroxy-1-[3-(trifluoromethyl)phenyl]ethyl}phenyl)imidazo[1,5-a]pyrazin-3-yl]-1-(1-methylethyl)cyclohexanecarboxylic acid]
104	CC(C)[C@@]1(C(=O)O)CCC[C@H](c2nc(-c3ccc([C@](C)(O)c4cccc(C(F)(F)F)c4)cc3)c3c(N)nccn23)C1 [Example 15, (1R,3S)-3-[8-amino-1-(4-{(1S)-1-hydroxy-1-[3-(trifluoromethyl)phenyl]ethyl}phenyl)imidazo[1,5-a]pyrazin-3-yl]-1-(1-methylethyl)cyclohexanecarboxylic acid]
7.6	C[C@]1(C(=O)O)CC[C@](C)(c2nc(-c3ccc([C@@](C)(O)c4cccc(C(F)(F)F)c4)cc3)c3c(N)nccn23)C1 [Example 16, (1S,3S)-3-[8-amino-1-(4-{(1R)-1-hydroxy-1-[3-(trifluoromethyl)phenyl]ethyl}phenyl)imidazo[1,5-a]pyrazin-3-yl]-1,3-dimethylcyclopentanecarboxylic acid]
55.1	C[C@@]1(C(=O)O)CC[C@](C)(c2nc(-c3ccc([C@@](C)(O)c4cccc(C(F)(F)F)c4)cc3)c3c(N)nccn23)C1 [Example 17, (1R,3S)-3-[8-amino-1-(4-{(1R)-1-hydroxy-1-[3-(trifluoromethyl)phenyl]ethyl}phenyl)imidazo[1,5-a]pyrazin-3-yl]-1,3-dimethylcyclopentanecarboxylic acid]
178	C[C@]1(C(=O)O)CC[C@@](C)(c2nc(-c3ccc([C@@](C)(O)c4cccc(C(F)(F)F)c4)cc3)c3c(N)nccn23)C1 [Example 18, (1S,3R)-3-[8-amino-1-(4-{(1R)-1-hydroxy-1-[3-(trifluoromethyl)phenyl]ethyl}phenyl)imidazo[1,5-a]pyrazin-3-yl]-1,3-dimethylcyclopentanecarboxylic acid]
4.1	CCOc1cc(C(C)(O)c2cccc(C)c2)ccc1-c1nc(C23CCC(C(=O)O)(CC2)CC3)n2ccnc(N)c12 (stereo not drawn) [Example 19, 4-(8-amino-1-{2-ethoxy-4-[1-hydroxy-1-(3-methylphenyl)ethyl]phenyl}imidazo[1,5-a]pyrazin-3-yl)bicyclo[2.2.2]octane-1-carboxylic acid]
136	CCOc1cc(C(C)(O)c2cccc(C)c2)ccc1-c1nc(C23CCC(C(=O)O)(CC2)CC3)n2ccnc(N)c12 (stereo not drawn) [Example 20, 4-(8-amino-1-{2-ethoxy-4-[1-hydroxy-1-(3-methylphenyl)ethyl]phenyl}imidazo[1,5-a]pyrazin-3-yl)bicyclo[2.2.2]octane-1-carboxylic acid]
56.1	CC(C)[C@H]1CC[C@@H](c2nc(-c3ccc([C@@](C)(O)c4cccc(C(F)(F)F)c4)cc3)c3c(N)nccn23)C[C@H]1C(=O)O [Example 21, (1R,2R,5R)-5-[8-amino-1-(4-{(1R)-1-hydroxy-1-[3-(trifluoromethyl)phenyl]ethyl}phenyl)imidazo[1,5-a]pyrazin-3-yl]-2-(1-methylethyl)cyclohexanecarboxylic acid]
